The source of these data is patent US20030207813A1, “Retroviral protease inhibitor combinations” (priority 1995, published 2003).

Values after ≈ are worked out from the molar mass of the structure shown. Read-outs that look alike come from different tables or passages of the source.

Experiment [1] concerns RFRR (resistant strains selected from RF against Examples 1 and 2). The experiment in a line: CEM-T4 cell infection assay, reverse transcriptase readout, resistant isolate RFRR. Type of experiment: cell-based, HIV-1. The conditions noted are these: Human immunodeficiency virus 1, 168 h, Table 6, CEM-T4 cells, 7 days, read-out: Virus Isolate (EC50 ng/mL) RFRR. From the text: (§1) RF represents the HIV-1 strain HIV-LRF and RFR represents a mixture of resistant strains obtained by selection of RF against the compound of Example 1. RFR comprises a mixture of viral strains having protease genotypes of G48V (14/40 clones); G48V, V82A (18/40 clones); G48V, L90S (2/40 clones); G48V, 154T, V82A (1/40 clones); G48M (1/40 clones); G48V, Q61H (1/40 clones); V13I, G48V (1/40 clones); G48V, F53L, V82A (1/40 clones); and G48V, V82A, C95Y (1/40 clones). RFR2 represents a mixture of resistant strains obtained by cloning RFR by three rounds of growth at limiting dilution. RFR2 comprises a mixture of viral strains having protease genotypes of G48V, V82A (13/15 clones); G17E, G48V, V82A (1/15 clones); and G48V, V82A, N37D, N88D (1/15 clones). RFRR represents a mixture of resistant strains obtained by selection of RF against the compounds of Examples 1 and 2 and then cloning by three rounds of growth at limiting dilution. RFRR comprises a mixture of viral strains having protease genotypes of G48V, 154T, L63P, V82A (7/9 clones); G48V, 154T, L63P, V82A, N88S (1/9 clones); and G48V, 154T, L63P, G73M, V82A (1/9 clones). SF162 represents the HIV-1 strain SF-162 and SF162R represents a mixture of resistant strains obtained by selection of SF162 against the compound of Example 1. SF162R comprises a mixture of viral strains having protease genotypes of M461, F53L, L63P, A71V, N88D (2/3 clones); and M46I, F53L, L63P, A71V, N88D, Q92R (1/3 clones). 89-959 represents the HIV-1 strain 89-959 and 89-959R represents a mixture of resistant strains obtained by selection of 89-959 against the compound of Example 2. 89-959R comprises a mixture of viral strains having protease genotypes of N88S (4/5 clones); and D25N, T26A, D30N, D37N, R41K, G73D, R87K, N88S (1/4 clones). NL4 represents the HIV-1 strain HIV-1NL4-3. NL4(G48V) represents a strain having a synthetically generated site-directed mutation in the protease from glycine to valine at amino acid position number 48. NL4(I84V) represents a strain having a synthetically generated site-directed mutation in the protease from isoleucine to valine at amino acid position number 84. NL4(R8Q,M46I) represents a strain having synthetically generated site-directed mutations in the protease from arginine to glutamine at amino acid position number 8 and methionine to isoleucine at amino acid position number 46. NL4(P22-538) represents a mixture of resistant strains obtained by selection of HIV-1NL4-3 against the compound of Example 10 after 22 passages comprising protease genotypes M46I, L63P, A71V, V82F, I84V (4/10); M46I, L63P, V82F, I84V (3/10); and M46I, A71V, V82F, I84V (3/10). NL4(P37-538) represents resistant strains obtained by selection of HIV-1NL4-3 against the compound of Example 10 after 37 passages comprising protease genotype M46I, L63P, A71V, 184A. NL4(538/524) represents resistant strains obtained by selection of NL4(P22-538) against the compound of Example 5 after 24 passages comprising protease genotype M46I, L63P, A71V, 184A. NL4(538/P7-AG) represents a mixture of resistant strains obtained by selection of NL4(P22-538) against the compound of Example 12 after 7 passages comprising protease genotypes M46I, L63P, A71V, 184A; and V321, V82I. NL4(538/P24-AG) represents resistant strains obtained by selection of NL4(P22-538) against the compound of Example 12 after 24 passages comprising protease genotype M46I, L63P, A71V, 184A. NLA(P19-003) represents resistant strains obtained by selection of HIV-1^NL4-3 against the compound of Example 9 after 19 passages comprising protease genotype R8K, M46I. NL4(P34-003) represents resistant strains obtained by selection of HIV-1^NL4-3 against the compound of Example 9 after 34 passages comprising protease genotype R8K, M46I, L63P, A71V, L90M.
(§2) The viral isolate resistance results summarized in Tables 4-6 were generated according to the following assay procedure or minor modifications thereof. Assays are performed in 96-well tissue culture plates. […]

Experiment [2] relates to RFR2 (RFR cloned by three rounds of limiting dilution). The experiment in a line: CEM-T4 cell infection assay, reverse transcriptase readout, resistant isolate RFR2. The conditions noted are these: Human immunodeficiency virus 1, 168 h, Table 6, CEM-T4 cells, 7 days, read-out: Virus Isolate (EC50 ng/mL) RFR2. Type of experiment: cell-based, HIV-1.
Excerpt: as §1, §2

Experiment [3] relates to NL4(538/P7-AG). The experiment in a line: Viral isolate resistance assay per Markowitz et al., NL4(538/P7-AG). Type of experiment: cell-based, HIV-1. The conditions noted are these: Human immunodeficiency virus 1; Table 10; NL4(P22-538) selected against Example 12, 7 passages.
Excerpt: as §1, with “NLA(P19-003) represents resistant strains obtained by selection of HIV-1^NL4-3 against the compound of Example 9 after 19 passages comprising protease genotype R8K, M46I. NL4(P34-003) represents resistant strains obtained by selection of HIV-1^NL4-3 against the compound of Example 9 after 34 passages comprising protease genotype R8K, M46I, L63P, A71V, L90M.” left out

Experiment [4] deals with HIV-1NL4-3. The experiment in a line: microbe, parasite or virus in culture. Type of experiment: cell-based. The conditions noted are these: for EC50: Table 8, read-out: Virus Isolate (EC50 nM) NL4. From the text: RF represents the HIV-1 strain HIV-LRF and RFR represents a mixture of resistant strains obtained by selection of RF against the compound of Example 1. […] RFR2 represents a mixture of resistant strains obtained by cloning RFR by three rounds of growth at limiting dilution. […] RFRR represents a mixture of resistant strains obtained by selection of RF against the compounds of Examples 1 and 2 and then cloning by three rounds of growth at limiting dilution. […] SF162 represents the HIV-1 strain SF-162 and SF162R represents a mixture of resistant strains obtained by selection of SF162 against the compound of Example 1. […] 89-959 represents the HIV-1 strain 89-959 and 89-959R represents a mixture of resistant strains obtained by selection of 89-959 against the compound of Example 2. […] NL4 represents the HIV-1 strain HIV-1NL4-3. NL4(G48V) represents a strain having a synthetically generated site-directed mutation in the protease from glycine to valine at amino acid position number 48. NL4(I84V) represents a strain having a synthetically generated site-directed mutation in the protease from isoleucine to valine at amino acid position number 84. NL4(R8Q,M46I) represents a strain having synthetically generated site-directed mutations in the protease from arginine to glutamine at amino acid position number 8 and methionine to isoleucine at amino acid position number 46.

The mark [5] stands for this setting: Human immunodeficiency virus 1, NL4.

For `CNCC(=O)N[C@H](C(=O)N[C@@H](Cc1ccccc1)[C@H](O)CN(CCC(C)C)C(=O)NC(C)(C)C)C(C)(C)C` [Example 2, (2R,3S)-3-(N-methylaminoacetyl-L-tert-butylglycinyl)amino-1-(N-isoamyl-N-(tert-butylcarbamoyl))amino-4-phenyl-2-butanol], the EC50 in experiment [1] was determined as 1110 ng/mL (≈ 2.08 µM); in experiment [2], 367 ng/mL (≈ 0.688 µM).

By EC90 is commonly meant the concentration at which the effect reaches the 90% level. As for `CC(C)(C)NC(=O)[C@@H]1CC2CCCC[C@@H]2CN1C[C@@H](O)[C@H](Cc1ccccc1)NC(=O)[C@H](CC(N)=O)NC(=O)c1ccc2ccccc2n1` (stereo in doubt) [Example 6, N-tert-Butyl decahydro-2-[2(R)-hydroxy-4-phenyl-3(S)-[[N-(2-quinolylcarbonyl)-L-asparaginyl]amino]butyl]-(4aR,8aS)-isoquinoline-3(S)-carboxamide], the EC50 worked out at 2400 nM in experiment [3], 30 nM in experiment [4] (setting [5]), 962 ng/mL (≈ 1.43 µM) in experiment [1] and 31 ng/mL (≈ 0.0462 µM) in experiment [2]. Besides, the EC90 in experiment [4] (Human immunodeficiency virus 1, Table 7, EC90, NL4, read-out: Virus Isolate (EC90 nM) NL4) is 30 nM.

Regarding `CC(C)CN(C[C@@H](O)[C@H](Cc1ccccc1)NC(=O)[C@H](CC(N)=O)NC(=O)c1ccc2ccccc2n1)C(=O)NC(C)(C)C` (relative stereo) [Example 1, [1S-[1R*(R*),2S*]]-N^1-[3-[[[(1,1-dimethylethyl)amino]carbonyl])2-methylpropyl)amino]-2-hydroxy-1-(phenylmethyl)propyl]-2-[(2-quinolinylcarbonyl)amino]-butanediamide], the EC50 in experiment [1] worked out at 5610 ng/mL (≈ 9.27 µM); in experiment [2] it was 880 ng/mL (≈ 1.46 µM).

With `CC(C)(C)NC(=O)[C@@H]1CN(Cc2cccnc2)CCN1C[C@@H](O)C[C@@H](Cc1ccccc1)C(=O)N[C@H]1c2ccccc2C[C@H]1O` [Example 5, N-(2(R)-Hydroxy-1(S)-indanyl)-2(R)-phenylmethyl-4(S)-hydroxy-5-(1-(4-(3-pyridylmethyl)-2(S)-N′-(t-butylcarboxamido)-piperazinyl))-pentaneamide], the EC50 in experiment [3] was determined as 6400 nM; in experiment [4] (setting [5]) it was 80 nM; in experiment [1] it was 982 ng/mL (≈ 1.6 µM); in experiment [2], 57 ng/mL (≈ 0.0929 µM). Also, the EC90 in experiment [4] (Human immunodeficiency virus 1, read-out: Virus Isolate (EC90 nM) NL4) is 80 nM.
